Data taken from PubChem BioAssay (NCI).
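Method: 48-hour compound exposure of cells in 96-well plates, five concentrations, linear interpolation of endpoints. Abbreviation: GI50, concentration required for 50% inhibition of growth. Definition used: TGI = concentration required for complete inhibition of growth.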

Experiments:
Experiment in all cases: inhibition of tumour cell growth, NCI panel, 48 h; in the data active = GI50 below about 0.43 µM; inactive = the rest
NCI-H23 lung = test system: NCI-H23 lung
CAKI-1 renal = test system: CAKI-1 renal
TK-10 renal = test system: TK-10 renal
HCT-15 colon = test system: HCT-15 colon
KM12 colon = test system: KM12 colon
HOP-92 NSCLC = test system: HOP-92 NSCLC
OVCAR-4 ovarian = test system: OVCAR-4 ovarian
SK-MEL-28 melanoma = test system: SK-MEL-28 melanoma
SF-268 CNS = test system: SF-268 CNS
RPMI-8226 leukemia = test system: RPMI-8226 leukemia
SK-OV-3 ovarian = test system: SK-OV-3 ovarian
A549 NSCLC = test system: A549 NSCLC
EKVX NSCLC = test system: EKVX NSCLC
BT-549 breast = test system: BT-549 breast
MCF7 breast = test system: MCF7 breast
DU-145 prostate = test system: DU-145 prostate
SNB-75 CNS = test system: SNB-75 CNS
UACC-257 melanoma = test system: UACC-257 melanoma
SW-620 colon = test system: SW-620 colon
T-47D breast = test system: T-47D breast
LOX IMVI melanoma = test system: LOX IMVI melanoma
A498 renal = test system: A498 renal
HL-60(TB) leukemia = test system: HL-60(TB) leukemia
HT29 colon = test system: HT29 colon
MDA-MB-231 breast = test system: MDA-MB-231 breast
OVCAR-8 ovarian = test system: OVCAR-8 ovarian
ACHN renal = test system: ACHN renal
OVCAR-5 ovarian = test system: OVCAR-5 ovarian
NCI-H226 lung = test system: NCI-H226 lung
SF-539 CNS = test system: SF-539 CNS
HS 578T breast = test system: HS 578T breast
UO-31 renal = test system: UO-31 renal
PC-3 prostate = test system: PC-3 prostate
U251 CNS = test system: U251 CNS
CCRF-CEM leukemia = test system: CCRF-CEM leukemia
SN12C renal = test system: SN12C renal
M14 melanoma = test system: M14 melanoma
COLO 205 colon = test system: COLO 205 colon
OVCAR-3 ovarian = test system: OVCAR-3 ovarian
MDA-MB-435 = test system: MDA-MB-435
NCI-H460 lung = test system: NCI-H460 lung
HCC-2998 colon = test system: HCC-2998 colon
UACC-62 melanoma = test system: UACC-62 melanoma
NCI-H522 lung = test system: NCI-H522 lung
786-0 renal = test system: 786-0 renal
NCI/ADR-RES ovarian = test system: NCI/ADR-RES ovarian
SK-MEL-5 melanoma = test system: SK-MEL-5 melanoma
RXF 393 renal = test system: RXF 393 renal
SNB-19 CNS = test system: SNB-19 CNS
K-562 leukemia = test system: K-562 leukemia
HCT-116 colon = test system: HCT-116 colon
HOP-62 NSCLC = test system: HOP-62 NSCLC
SF-295 CNS = test system: SF-295 CNS
SK-MEL-2 melanoma = test system: SK-MEL-2 melanoma
IGROV1 ovarian = test system: IGROV1 ovarian

CC(C)(C)OC(=O)n1c(Cl)c(C(=O)N=C=S)c2ccccc21
> 100 µM: TGI (NCI-H23 lung) | TGI (TK-10 renal) | TGI (HCT-15 colon) | TGI (OVCAR-4 ovarian) | TGI (SK-MEL-28 melanoma) | TGI (SF-268 CNS) | TGI (SK-OV-3 ovarian) | TGI (A549 NSCLC) | TGI (MCF7 breast) | TGI (DU-145 prostate) | TGI (SNB-75 CNS) | TGI (UACC-257 melanoma) | TGI (SW-620 colon) | TGI (T-47D breast) | TGI (LOX IMVI melanoma) | TGI (A498 renal) | TGI (HL-60(TB) leukemia) | TGI (HT29 colon) | TGI (ACHN renal) | TGI (NCI-H226 lung) | TGI (PC-3 prostate) | TGI (U251 CNS) | TGI (CCRF-CEM leukemia) | TGI (SN12C renal) | TGI (M14 melanoma) | TGI (COLO 205 colon) | TGI (MDA-MB-435) | TGI (NCI-H460 lung) | TGI (HCC-2998 colon) | TGI (786-0 renal) | TGI (RXF 393 renal) | TGI (SNB-19 CNS) | TGI (K-562 leukemia) | TGI (HCT-116 colon) | TGI (HOP-62 NSCLC) | TGI (SF-295 CNS)
62.6 µM: TGI (NCI/ADR-RES ovarian)
inactive: GI50 (NCI-H23 lung) 28.4 µM | GI50 (CAKI-1 renal) 34.6 µM | GI50 (TK-10 renal) 27.3 µM | GI50 (HCT-15 colon) 30 µM | GI50 (KM12 colon) 18.4 µM | GI50 (HOP-92 NSCLC) 17.2 µM | GI50 (OVCAR-4 ovarian) > 100 µM | GI50 (SK-MEL-28 melanoma) 80.7 µM | GI50 (SF-268 CNS) 37.5 µM | GI50 (RPMI-8226 leukemia) 24.4 µM | GI50 (SK-OV-3 ovarian) > 100 µM | GI50 (A549 NSCLC) 50 µM | GI50 (EKVX NSCLC) 29.6 µM | GI50 (BT-549 breast) 30.9 µM | GI50 (MCF7 breast) 37.2 µM | GI50 (DU-145 prostate) 36 µM | GI50 (SNB-75 CNS) > 100 µM | GI50 (UACC-257 melanoma) 55.4 µM | GI50 (SW-620 colon) 35.4 µM | GI50 (T-47D breast) 47.8 µM | GI50 (LOX IMVI melanoma) 29.2 µM | GI50 (A498 renal) 92.6 µM | GI50 (HL-60(TB) leukemia) 24.4 µM | GI50 (HT29 colon) > 100 µM | GI50 (MDA-MB-231 breast) 15.7 µM | GI50 (OVCAR-8 ovarian) 23.3 µM | GI50 (ACHN renal) 29.5 µM | GI50 (OVCAR-5 ovarian) 23 µM | GI50 (NCI-H226 lung) > 100 µM | GI50 (SF-539 CNS) 23 µM | GI50 (HS 578T breast) 25.5 µM | GI50 (UO-31 renal) 18.5 µM | GI50 (PC-3 prostate) 24.2 µM | GI50 (U251 CNS) 34.2 µM | GI50 (CCRF-CEM leukemia) 35.5 µM | GI50 (SN12C renal) 67.1 µM | GI50 (M14 melanoma) > 100 µM | GI50 (COLO 205 colon) 33.6 µM | GI50 (OVCAR-3 ovarian) 25.6 µM | GI50 (MDA-MB-435) 80.8 µM | GI50 (NCI-H460 lung) 39.6 µM | GI50 (HCC-2998 colon) 38.9 µM | GI50 (UACC-62 melanoma) 28.8 µM | GI50 (NCI-H522 lung) 18.1 µM | GI50 (786-0 renal) 80 µM | GI50 (NCI/ADR-RES ovarian) 18.5 µM | GI50 (SK-MEL-5 melanoma) 18.8 µM | GI50 (RXF 393 renal) 53.4 µM | GI50 (SNB-19 CNS) 44.4 µM | GI50 (K-562 leukemia) 47 µM | GI50 (HCT-116 colon) 55.7 µM | GI50 (HOP-62 NSCLC) > 100 µM | GI50 (SF-295 CNS) 33 µM | GI50 (SK-MEL-2 melanoma) 24.7 µM | GI50 (IGROV1 ovarian) 9.65 µM
87.4 µM: TGI (RPMI-8226 leukemia)
75.8 µM: TGI (SK-MEL-2 melanoma)
37.6 µM: TGI (NCI-H522 lung)
35.8 µM: TGI (UO-31 renal)
34.7 µM: TGI (IGROV1 ovarian)
46 µM: TGI (MDA-MB-231 breast)
72.9 µM: TGI (OVCAR-3 ovarian)
52 µM: TGI (KM12 colon)
94.3 µM: TGI (OVCAR-5 ovarian)
66.1 µM: TGI (OVCAR-8 ovarian)
65.4 µM: TGI (HOP-92 NSCLC)
92 µM: TGI (CAKI-1 renal)
55.1 µM: TGI (SF-539 CNS)
68.2 µM: TGI (HS 578T breast)
79 µM: TGI (UACC-62 melanoma)
91.7 µM: TGI (BT-549 breast)
98.7 µM: TGI (EKVX NSCLC)
40.1 µM: TGI (SK-MEL-5 melanoma)
